The text below walks through data of ChEMBL document CHEMBL1141742, “A Novel Insect Antifeedant Nonprotein Amino Acid from Calotropis gigantea” (1998).

Activity calls are given as the source filed them. No cut-off for these calls is given here.

Assay [1] deals with Schistocerca gregaria. Briefly: Antifeedant activity against 5th instar nymphs of Schistocerca gregaria assessed as feeding reduction at 1 ng/cm'2 by filter paper based feeding assay. It is filed as functional, organism-based.
The test system of assay [2] is Schistocerca gregaria. As to the kind of experiment: Antifeedant activity against 5th instar nymphs of Schistocerca gregaria assessed as feeding reduction at 1.6 ug/cm'2 by maize leave choice feeding assay. Format: functional. More on the design: scale not given: the % may be the effect or the level left.
The subject of assay [3] is Schistocerca gregaria. As to the kind of experiment: Antifeedant activity against 5th instar nymphs of Schistocerca gregaria assessed as feeding reduction at 3.2 ug/cm'2 by maize leave choice feeding assay. Format: functional. More on the design: scale not given: the % may be the effect or the level left.
For assay [4], the system named is Schistocerca gregaria. Briefly: Antifeedant activity against 5th instar nymphs of Schistocerca gregaria assessed as feeding reduction at 5 ug/cm'2 by maize leave choice feeding assay. It is filed as functional. Details: scale not given: the % may be the effect or the level left.
Assay [5] has as its system Schistocerca gregaria. As to the kind of experiment: Antifeedant activity against 5th instar nymphs of Schistocerca gregaria assessed as feeding reduction at 6.6 ug/cm'2 by maize leave choice feeding assay. Format: functional. More on the design: scale not given: the % may be the effect or the level left.

Take `C/C=C(\C)C(=O)O[C@H]1C[C@@H](OC(C)=O)[C@@]2(C(=O)OC)CO[C@H]3[C@@H](O)[C@@](C)([C@]45O[C@@]4(C)[C@@H]4C[C@H]5O[C@@H]5OC=C[C@@]54O)[C@H]4[C@]1(CO[C@]4(O)C(=O)OC)[C@@H]32`: in the assay on Schistocerca gregaria [1], the outcome was Active.
As for `CCOC(=O)Nc1ccc([C@H](NC(C)=O)C(=O)O)cc1` [GIGANTICINE], the Activity stood at 55% in the assay with Schistocerca gregaria [2], 68% with Schistocerca gregaria [3], 80% in the assay on Schistocerca gregaria [4] and 90% in the assay on Schistocerca gregaria [5].
